Data as given in ChEMBL document CHEMBL4680187, “Optimization of EphA2 antagonists based on a lithocholic acid core led to the identification of UniPR505, a new 3α-carbamoyloxy derivative with antiangiogenetic properties” (Eur J Med Chem, 2020).

Target: T1, Ephrin type-A receptor 6 (Mus musculus, UniProt Q62413)
T1 sequence (Q62413 whole entry): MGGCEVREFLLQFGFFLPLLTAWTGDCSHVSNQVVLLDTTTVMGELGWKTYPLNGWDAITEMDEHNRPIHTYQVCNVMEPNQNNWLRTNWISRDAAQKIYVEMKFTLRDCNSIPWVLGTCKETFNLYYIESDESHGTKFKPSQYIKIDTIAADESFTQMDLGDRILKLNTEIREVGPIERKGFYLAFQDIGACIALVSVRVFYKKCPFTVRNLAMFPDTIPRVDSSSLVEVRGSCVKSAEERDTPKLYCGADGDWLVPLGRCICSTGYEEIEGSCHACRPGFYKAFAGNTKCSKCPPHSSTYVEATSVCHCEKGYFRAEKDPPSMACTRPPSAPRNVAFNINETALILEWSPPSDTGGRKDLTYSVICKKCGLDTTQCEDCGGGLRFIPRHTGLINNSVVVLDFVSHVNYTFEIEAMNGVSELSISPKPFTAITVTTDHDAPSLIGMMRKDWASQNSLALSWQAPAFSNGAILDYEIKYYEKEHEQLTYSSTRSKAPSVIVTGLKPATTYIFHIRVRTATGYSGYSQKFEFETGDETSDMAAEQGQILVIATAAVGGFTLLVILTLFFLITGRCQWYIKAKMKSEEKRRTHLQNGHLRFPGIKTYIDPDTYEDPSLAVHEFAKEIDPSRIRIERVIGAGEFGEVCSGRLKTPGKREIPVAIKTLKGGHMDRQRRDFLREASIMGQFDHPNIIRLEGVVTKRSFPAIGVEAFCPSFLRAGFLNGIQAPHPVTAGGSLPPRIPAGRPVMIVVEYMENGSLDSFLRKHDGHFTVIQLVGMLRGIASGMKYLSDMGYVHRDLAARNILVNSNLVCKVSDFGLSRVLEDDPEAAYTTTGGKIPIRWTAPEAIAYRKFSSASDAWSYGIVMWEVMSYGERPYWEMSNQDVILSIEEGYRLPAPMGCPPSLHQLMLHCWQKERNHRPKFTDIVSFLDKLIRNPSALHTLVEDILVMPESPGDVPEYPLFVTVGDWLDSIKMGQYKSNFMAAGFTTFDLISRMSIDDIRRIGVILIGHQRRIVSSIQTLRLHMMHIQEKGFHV
Assay: Displacement of biotinylated ephrin-A1-Fc from mouse EphA6 Fc preincubated for 1 hr followed by ephrin-A1-FC addition and measured after 4 hrs by ELISA

IC50: 18 µM
SMILES: CCNC(=O)O[C@@H]1CC[C@@]2(C)[C@H](CC[C@@H]3[C@@H]2CC[C@]2(C)[C@@H]([C@H](C)CCC(=O)N[C@H](CC(=O)O)Cc4c[nH]c5ccccc45)CC[C@@H]32)C1
